Results reported in patent publication US6921770B2 (priority 2000, dated 2005).

Test system: rice blast fungi
Type: in vivo, Pyricularia grisea

Row | Compound | Inhibiting Ratio (%) (at 250 ppm)
1 | 2-(2,4-dichloromethylphenylimino)-3-methyl-4-[N-(3-chlorophenyl)carbamoylmethyl]-1,3-thiazol-4-ine hydrobromide [Compound 60] | 100%
2 | 2-(2,4-difluorophenylimino)-3-methyl-4-[N-(methoxyphenyl)carbamoylmethyl]-1,3-thiazol-4-ine [Compound 340] | 94%
3 | 2-(2-fluorophenylimino)-3-methyl-4-[N-(methoxyphenyl)carbamoylmethyl]-1,3-thiazol-4-ine [Compound 338] | 97%
4 | 2-(3-chloro-4-fluorophenylimino)-3-methyl-4-[N-(methoxyphenyl)carbamoylmethyl]-1,3-thiazol-4-ine [Compound 336] | 96%
5 | 2-(3-fluorophenylimino)-3-methyl-4-[N-(methoxyphenyl)carbamoylmethyl]-1,3-thiazol-4-ine [Compound 337] | 95%
6 | Br.Cn1c(CC(=O)Nc2ccccc2)csc1=Nc1cccc(C(F)(F)F)c1 [Compound 1, 2-(3-trifluoromethylphenylimino)-3-methyl-4-(N-phenylcarbamoylmethyl)-1,3-thiazol-4-ine hydrobromide] | 75%
7 | Br.Cn1c(CC(=O)Nc2ccccc2)csc1=Nc1ccc(C(F)(F)F)cc1 [Compound 2, 2-(4-trifluoromethylphenylimino)-3-methyl-4-(N-phenylcarbamoylmethyl)-1,3-thiazol-4-ine hydrobromide] | 86%
8 | Br.Cn1c(CC(=O)Nc2ccccc2)csc1=Nc1ccc(Oc2ccccc2)cc1 [Compound 3, 2-(4-phenoxyphenylimino)-3-methyl-4-(N-phenylcarbamoylmethyl)-1,3-thiazol-4-ine hydrobromide] | 95%
9 | Br.Cc1ccc(NC(=O)Cc2csc(=Nc3cc(Cl)cc(Cl)c3)n2C)cc1 [Compound 4, 2-(3,5-dichlorophenylimino)-3-methyl-4-[N-(4-methylphenyl)carbamoylmethyl]-1,3-thiazol-4-ine hydrobromide] | 83%
10 | Br.Cc1ccc(NC(=O)Cc2csc(=Nc3cccc(C(F)(F)F)c3)n2C)cc1 [Compound 6, 2-(3-trifluoromethylphenylimino)-3-methyl-4-[N-(4-methylphenyl)carbamoylmethyl]-1,3-thiazol-4-ine hydrobromide] | 99%
11 | Br.Cn1c(CC(=O)Nc2cccc(C(F)(F)F)c2)csc1=Nc1cccc(C(F)(F)F)c1 [Compound 7, 2-(3-trifluoromethylphenylimino)-3-methyl-4-[N-(3-trifluoromethylphenyl)carbamoylmethyl]-1,3-thiazol-4-ine hydrobromide] | 97%
12 | Br.Cn1c(CC(=O)Nc2cccc(C(F)(F)F)c2)csc1=Nc1ccc(C(F)(F)F)cc1 [Compound 8, 2(4-trifluoromethylphenylimino)-3-methyl-4-[N-(3-trifluoromethylphenyl)carbamoylmethyl]-1,3-thiazol-4-ine hydrobromide] | 90%
13 | Br.Cc1ccc(NC(=O)Cc2csc(=Nc3ccc(Oc4ccccc4)cc3)n2C)cc1 [Compound 13, 2-(4-phenoxyphenylimino)-3-methyl-4-[N-(4-methylphenyl)carbamoylmethyl]-1,3-thiazol-4-ine hydrobromide] | 99%
14 | Br.Cc1ccc(NC(=O)Cc2csc(=Nc3ccc(C(F)(F)F)cc3)n2C)cc1 [Compound 14, 2-(4-trifluoromethylphenylimino)-3-methyl-4-[N-(4-methylphenyl)carbamoylmethyl]-1,3-thiazol-4-ine hydrobromide] | 99%
15 | Br.Cc1ccc(NC(=O)Cc2csc(=Nc3cccc([N+](=O)[O-])c3)n2C)cc1 [Compound 15, 2-(3-nitrophenylimino)-3-methyl-4-[N-(4-methylphenyl)carbamoylmethyl]-1,3-thiazol-4-ine hydrobromide] | 91%
16 | Br.Cc1ccc(NC(=O)Cc2csc(=Nc3ccc([N+](=O)[O-])cc3)n2C)cc1 [Compound 16, 2-(4-nitrophenylimino)-3-methyl-4-[N-(4-methylphenyl)carbamoylmethyl]-1,3-thiazol-4-ine hydrobromide] | 100%
17 | Br.Cn1c(CC(=O)Nc2cccc(Cl)c2)csc1=Nc1cccc([N+](=O)[O-])c1 [Compound 18, 2-(3-nitrophenylimino)-3-methyl-4-[N-(3-chlorophenyl)carbamoylmethyl]-1,3-thiazol-4-ine hydrobromide] | 93%
18 | Br.Cn1c(CC(=O)Nc2cccc(Cl)c2)csc1=Nc1cccc(C(F)(F)F)c1 [Compound 19, 2-(3-trifluoromethylphenylimino)-3-methyl-4-[N-(3-chlorophenyl)carbamoylmethyl]-1,3-thiazol-4-ine hydrobromide] | 91%

Row | Compound | Inhibiting Ratio (%) (at 250 ppm)
19 | Br.Cn1c(CC(=O)Nc2cccc(Cl)c2)csc1=Nc1ccc(C(F)(F)F)cc1 [Compound 20, 2-(4-trifluoromethylphenylimino)-3-methyl-4-[N-(3-chlorophenyl)carbamoylmethyl]-1,3-thiazol-4-ine hydrobromide] | 91%
20 | Br.Cn1c(CC(=O)Nc2cccc(Cl)c2)csc1=Nc1cc(Cl)cc(Cl)c1 [Compound 21, 2-(3,5-dichlorophenylimino)-3-methyl-4-[N-(3-chlorophenyl)carbamoylmethyl]-1,3-thiazol-4-ine hydrobromide] | 88%
21 | Br.CC(C)=CCOc1cc(N=c2scc(CC(=O)Nc3ccccc3)n2C)ccc1Cl [Compound 22, 2-(4-chloro-3-(3,3-dimethylallyloxy)phenylimino)-3-methyl-4-(N-phenylcarbamoylmethyl)-1,3-thiazol-4-ine hydrobromide] | 97%
22 | Br.CC(C)OC(=O)c1cc(N=c2scc(CC(=O)Nc3ccccc3)n2C)ccc1Cl [Compound 23, 2-(4-chloro-3-isopropyloxycarbonylphenylimino)-3-methyl-4-(N-phenylcarbamoylmethyl)-1,3-thiazol-4-ine hydrobromide] | 96%
23 | Br.Cc1ccc(Cl)cc1N=c1scc(CC(=O)Nc2ccccc2)n1C [Compound 24, 2-(5-chloro-2-methylphenylimino)-3-methyl-4-(N-phenylcarbamoymethyl)-1,3-thiazol-4-ine hydrobromide] | 97%
24 | Br.Cc1cc(Cl)ccc1N=c1scc(CC(=O)Nc2ccccc2)n1C [Compound 25, 2-(4-chloro-2-methylphenylimino)-3-methyl-4-(N-phenylcarbamoylmethyl)-1,3-thiazol-4-ine hydrobromide] | 100%
25 | Br.Cc1cc(Br)ccc1N=c1scc(CC(=O)Nc2ccccc2)n1C [Compound 26, 2-(4-bromo-2-methylphenylimino)-3-methyl-4-(N-phenylcarbamoylmethyl)-1,3-thiazol-4-ine hydrobromide] | 100%
26 | Br.COc1ccccc1N=c1scc(CC(=O)Nc2ccc(C)cc2)n1C [Compound 28, 2-(2-methoxyphenylimino)-3-methyl-4-[N-(4-methylphenyl)carbamoylmethyl]-1,3-thiazol-4-ine hydrobromide] | 100%
27 | Br.COc1ccc(N=c2scc(CC(=O)Nc3ccc(C)cc3)n2C)cc1 [Compound 29, 2-(4-methoxyphenylimino)-3-methyl-4-[N-(4-methylphenyl)carbamoylmethyl]-1,3-thiazol-4-ine hydrobromide] | 100%
28 | Br.CCCCc1ccc(N=c2scc(CC(=O)Nc3ccc(C)cc3)n2C)cc1 [Compound 30, 2-[4-(n-butyl)phenylimino]-3-methyl-4-[N-(4-methylphenyl)carbamoylmethyl]-1,3-thiazol-4-ine hydrobromide] | 100%
29 | Br.Cc1ccc(NC(=O)Cc2csc(=Nc3ccc(Cl)cc3C)n2C)cc1 [Compound 32, 2-(4-chloro-2-methylphenylimino)-3-methyl-4-[N-(4-methylphenyl)carbamoylmethyl]-1,3-thiazol-4-ine hydrobromide] | 100%
30 | Br.Cc1ccc(NC(=O)Cc2csc(=Nc3ccc(Br)cc3C)n2C)cc1 [Compound 33, 2-(4-bromo-2-methylphenylimino)-3-methyl-4-[N-(4-methylphenyl)carbamoylmethyl]-1,3-thiazol-4-ine hydrobromide] | 100%
31 | Br.Cc1ccc(NC(=O)Cc2csc(=Nc3cc(Cl)ccc3C)n2C)cc1 [Compound 34, 2-(5-chloro-2-methylphenylimino)-3-methyl-4-[N-(4-methylphenyl)carbamoylmethyl]-1,3-thiazol-4-ine hydrobromide] | 100%
32 | Br.Cc1ccc(NC(=O)Cc2csc(=Nc3ccc(C)c(Cl)c3)n2C)cc1 [Compound 35, 2-(3-chloro-4-methylphenylimino)-3-methyl-4[N-(4-methylphenyl)carbamoylmethyl]-1,3-thiazol-4-ine hydrobromide] | 100%
33 | Br.COc1ccc(N=c2scc(CC(=O)Nc3cccc(C(F)(F)F)c3)n2C)cc1 [Compound 36, 2-(4-methoxyphenylimino)-3-methyl-4-[N-(3-trifluoromethylphenyl)carbamoylmethyl]-1,3-thiazol-4-ine hydrobromide] | 98%
34 | Br.Cn1c(CC(=O)Nc2ccccc2)csc1=Nc1ccc(Cl)c(C(F)(F)F)c1 [Compound 37, 2-(4-chloro-3-trifluoromethylphenylimino)-3-methyl-4-(N-phenylcarbamoylmethyl)-1,3-thiazol-4-ine hydrobromide] | 100%
35 | Br.Cn1c(CC(=O)Nc2ccccc2)csc1=Nc1ccc(OC(F)(F)F)cc1 [Compound 39, 2-(4-trifluoromethoxyphenylimino)-3-methyl-4-(N-phenylcarbamoylmethyl)-1,3-thiazol-4-ine hydrobromide] | 99%
36 | Br.Cn1c(CC(=O)Nc2ccccc2)csc1=Nc1ccc(Cl)cc1F [Compound 42, 2-(4-chloro-2-fluorophenylimino)-3-methyl-4-(N-phenylcarbamoylmethyl)-1,3-thiazol-4-ine hydrobromide] | 100%
